Laboratory results from US8026359B2, “Fungicidal heterocyclic amines” (E.I. du Pont de Nemours and Company, priority 2007, dated 2011).
Marks after values point to notes of the source that are not given here.

Key:
Format in all cases: in vivo
[1] = test system: Erysiphe graminis f. sp. tritici; assay: Test A: wheat powdery mildew, preventive spray on wheat seedlings
Procedure, shortened: (§1)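 Two spray concentrations are used, 40 ppm and 200 ppm, the latter matching a rate of 500 g/ha, applied until run-off. The carrier is half acetone, half purified water with 250 ppm surfactant, and acetone for initial dissolution makes up 3% of the volume.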

[2] = test system: Puccinia recondita f. sp. tritici; assay: Test B: wheat leaf rust, preventive spray on wheat seedlings
Procedure, shortened: as §1

[3] = test system: Septoria nodorum; assay: Test C: wheat glume blotch, preventive spray on wheat seedlings
Procedure, shortened: as §1

[4] = test system: Septoria tritici; assay: Test D: wheat leaf blotch, preventive spray on wheat seedlings
Procedure, shortened: as §1

[5] = test system: Fusarium graminearum; assay: whole plant or invertebrate
[6] = test system: Botrytis cinerea; assay: Test F: tomato Botrytis, preventive spray on tomato seedlings
Procedure, shortened: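 Compounds dissolved in acetone (3% of final volume), suspended in 50/50 acetone/water with 250 ppm Trem® 014. Sprayed preventively to run-off on tomato seedlings at 200 ppm (500 g/ha) or 40 ppm.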

[7] = test system: Alternaria solani; assay: Test H: tomato early blight, preventive spray on seedlings
Excerpt: (§2) General protocol for preparing test suspensions for Tests A-R: The test compounds were first dissolved in acetone in an amount equal to 3% of the final volume and then suspended at the desired concentration (in ppm) in acetone and purified water (50/50 mix) containing 250 ppm of the surfactant Trem® 014 (polyhydric alcohol esters). The resulting test suspensions were then used in tests A-R. In Tests A-M, compounds were sprayed as a 200 ppm test suspension (equivalent to a rate of 500 g/ha) or as a 40 ppm test suspension to the point of runoff on the test plants. In Tests N-R, compounds were sprayed as a 100 g/ha test suspension (equivalent to a rate of 100 ppm) on the test plants at an application volume of 1000 L/ha. The test suspension was sprayed to the point of run-off on wheat seedlings.

[8] = test system: Colletotrichum orbiculare; assay: Test I: cucumber Colletotrichum anthracnose, preventive spray on cucumber seedlings; settings: 100 = 100% disease control, 0 = no control relative to controls; for Test I disease control rating: 200 ppm; for pest or weed control at 200 ppm: Colletotrichum orbiculare, 144 h, read-out: Test I disease control rating
Procedure, shortened: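 Compound was dissolved in acetone (3% of final volume), then suspended in 50/50 acetone/water with 250 ppm Trem 014 surfactant. Cucumber seedlings were sprayed to run-off as a preventive treatment at 200 ppm (equivalent to 500 g/ha) or 40 ppm.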

[9] = test system: Phytophthora infestans; settings: 200 ppm; 100 = 100% disease control, 0 = no control relative to controls
[10] = test system: Pythium aphanidermatum; assay: Test M: bluegrass pythium blight, preventive spray on bluegrass seedlings; settings: 200 ppm; 100 = 100% disease control, 0 = no control relative to controls
Excerpt: as §2, with “bluegrass” for “wheat”

[11] = 200 ppm, 100 = 100% disease control, 0 = no control relative to controls
[12] = Puccinia recondita, 192 h, 200 ppm, 100 = 100% disease control, 0 = no control relative to controls, read-out: Test B disease control rating
[13] = Parastagonospora nodorum, 216 h, 200 ppm, 100 = 100% disease control, 0 = no control relative to controls, read-out: Test C disease control rating
[14] = Zymoseptoria tritici, 504 h, 200 ppm, 100 = 100% disease control, 0 = no control relative to controls, read-out: Test D disease control rating
[15] = Fusarium graminearum, in Triticum aestivum, 192 h, read-out: Test E disease control rating
[16] = Botrytis cinerea, 120 h, 200 ppm, 100 = 100% disease control, 0 = no control relative to controls, read-out: Test F disease control rating
[17] = Alternaria solani, 168 h, 200 ppm, 100 = 100% disease control, 0 = no control relative to controls, read-out: Test H disease control rating

Compound	Test A disease control rating [1, 11] [%]	Test B disease control rating [2, 11] [%]	Test C disease control rating [3, 11] [%]	Test D disease control rating [4, 11] [%]	Test E disease control rating [5, 11] [%]	Test F disease control rating [6, 11] [%]	Test H disease control rating [7, 11] [%]	pest or weed control at 200 ppm [2, 12] [%]	pest or weed control at 200 ppm [3, 13] [%]	pest or weed control at 200 ppm [4, 14] [%]	pest or weed control at 200 ppm [5, 15] [%]	pest or weed control at 200 ppm [6, 16] [%]	pest or weed control at 200 ppm [7, 17] [%]	pest or weed control at 200 ppm [8] [%]	further results
COC[C@H](C)Nc1nccc(-c2ncnc(Nc3ccnc(Cl)c3)n2)n1 [Compound 27]	0	100	99	75	97	94									Test H disease control rating ([7]; 40 ppm (marked *)): 100* %
Cc1cc(Cl)cc(Cl)c1Nc1cc(-c2ccnc(NC3CCOCC3)n2)ccn1 [Compound 100]	0	98	98	77	96	0	99								Test I disease control rating [8]: 0%
COCC(C)(C)Nc1nccc(-c2ncnc(Nc3cc(F)cc(F)c3)n2)n1 [Compound 30]	67	99	100	88	91	96									Test H disease control rating ([7]; 40 ppm (marked *)): 87* %
COC[C@H](C)Nc1nccc(-c2ncnc(Nc3ccc(C#N)nc3)n2)n1 [Compound 37, 5-[[4-[2-[[(1S)-2-methoxy-1-methylethyl]amino]-4-pyrimidinyl]-1,3,5-triazinyl]amino]-2-pyridinecarbonitrile]								99	98	0	41	0	72		pest or weed control at 200 ppm ([1]; Blumeria graminis, 192 h, 200 ppm, 100 = 100% disease control, 0 = no control relative to controls, read-out: Test A disease control rating): 79%
Fc1cc(F)cc(Nc2ncnc(-c3ccnc(NC4CCOCC4)n3)n2)c1 [Compound 34]	0	98	100	59	68	0	94								
COC[C@H](C)Nc1nccc(-c2ncnc(Nc3cc(F)cc(C#N)c3)n2)n1 [Compound 36]															Test A disease control rating ([1]; 40 ppm (marked *)): 0* %; Test B disease control rating ([2]; 40 ppm (marked *)): 99* %; Test C disease control rating ([3]; 40 ppm (marked *)): 100* %; Test D disease control rating ([4]; 40 ppm (marked *)): 29* %; Test E disease control rating ([5]; 40 ppm (marked *)): 91* %; Test F disease control rating ([6]; 40 ppm (marked *)): 99* %; Test H disease control rating ([7]; 40 ppm (marked *)): 99* %
Fc1ccc(F)c(Nc2cc(-c3ccnc(NC4CCOCC4)n3)ccn2)c1F [Compound 73]	43	96	99	40	0	57									Test I disease control rating [8]: 85%; Test K disease control rating [9]: 0%; Test M disease control rating [10]: 0%
COC[C@H](C)Nc1nccc(-c2ncnc(Nc3ccnc(F)c3)n2)n1 [Compound 31]	0	100	100	88	89	99	92								
COC[C@H](C)Nc1nccc(-c2ncnc(Nc3cc(F)cc([N+](=O)[O-])c3)n2)n1 [Compound 39, N-(3-fluoro-5-nitrophenyl)-4-[2-[[(1S)-2-methoxy-1-methylethyl]amino]-4-pyrimidinyl]-1,3,5-triazin-2-amine]															pest or weed control at 40 ppm ([1]; Blumeria graminis, 192 h, 40 ppm (marked *), read-out: Test A disease control rating): 0%; pest or weed control at 40 ppm ([2]; Puccinia recondita, 192 h, 40 ppm (marked *), read-out: Test B disease control rating): 98%; pest or weed control at 40 ppm ([3]; Parastagonospora nodorum, 216 h, 40 ppm (marked *), read-out: Test C disease control rating): 99%; pest or weed control at 40 ppm ([4]; Zymoseptoria tritici, 504 h, 40 ppm (marked *), read-out: Test D disease control rating): 24%; pest or weed control at 40 ppm [5, 15]: 82%; pest or weed control at 40 ppm ([6]; Botrytis cinerea, 120 h, 40 ppm (marked *), read-out: Test F disease control rating): 60%; pest or weed control at 40 ppm ([7]; Alternaria solani, 168 h, 40 ppm (marked *), read-out: Test H disease control rating): 99%
CC(C)(C)Nc1nccc(-c2ncnc(Nc3cc(F)cc(F)c3)n2)n1 [Compound 33]	0	87	99	22		0	94								Test E disease control rating ([5]; 40 ppm (marked *)): 83* %
Cc1cc(Cl)ccc1Nc1cc(-c2ccnc(NC3CCOCC3)n2)ccn1 [Compound 103, 4-[2-[(4-chloro-2-methylphenyl)amino]-4-pyridinyl]-N-(tetrahydro-2H-pyran-4-yl)-2-pyrimidinamine]								97	100	1	0	0	99	0	
Cc1ccc(Nc2cc(-c3ccnc(NC4CCOCC4)n3)ccn2)c(Cl)c1 [Compound 102, 4-[2-[(2-chloro-4-methylphenyl)amino]-4-pyridinyl]-N-(tetrahydro-2H-pyran-4-yl)-2-pyrimidinamine]								93	100	3	27	83	41	0	
CSCC(C)Nc1nccc(-c2ccnc(Nc3cccc(Cl)c3)c2)n1 (stereo not shown) [Compound 95, 4-[2-[(3-chlorophenyl)amino]-4-pyridinyl]-N-[1-methyl-2-(methylthio)ethyl]-2-pyrimidinamine]								88	94	77	0	0	0	0	
COC(C)(C)Nc1nccc(-c2ncnc(Nc3cc(F)cc(F)c3)n2)n1 [Compound 32]	0	99	100	39	38	94	99								
CSCC(C)Nc1nccc(-c2ccnc(Nc3cccc(F)c3)c2)n1 (stereo not shown) [Compound 94, 4-[2-[(3-fluorophenyl)amino]-4-pyridinyl]-N-[1-methyl-2-(methylthio)ethyl]-2-pyrimidinamine]								89	95	69	0	72	0	0	
Cc1cccc(Cl)c1Nc1nccc(-c2ncnc(NC3CCOCC3)n2)n1 [Compound 104, 4-[2-[(2-chloro-6-methylphenyl)amino]-4-pyrimidinyl]-N-(tetrahydro-2H-pyran-4yl)-1,3,5-triazin-2-amine]								99	94	10	0	0	0	0	
